Assay results published in patent US12414566B2, “Safener containing herbicidal oil dispersion” (ARYSTA LIFESCIENCE INC, priority 2017, dated 2025).
Where two headings read alike, the source gives them in different places.

Test: Chemical stability in butyl benzoate
Format: physicochemical

| SMILES | chemical stability in the butyl benzoate | chemical stability in the butyl benzoate (room temperature or accelerated temperature) |
| --- | --- | --- |
| COc1nn(C(=O)[N-]S(=O)(=O)c2ccccc2OC(F)(F)F)c(=O)n1C.[Na+] [Flucarbazone sodium] | chemically stable |  |
| CC(Oc1ccc(Oc2nc3ccc(Cl)cc3o2)cc1)C(=O)O (centres unmarked) [fenoxaprop] |  | chemically stable |
